The source of these data is patent US20090099136A1 (PHARMASSET, INC., priority 2007, published 2009).

The structures appear in SMILES notation. Several values for one entry are separate records, joined by “and”; a condition that tells them apart may be missing. Equal values may be shown once.

In one series the test system is NL43 wild type virus. Format: cell-based, HIV. As to conditions: read-out: EC50 (P4) (WT).

Turning to `Cc1cn(C2COC(COP(=O)(NC(C)C(=O)OC3CCC3)Oc3ccccc3)O2)c(=O)[nH]c1=O` (mixture of isomers) [Example 95], the “Toxicity (Luciferase, 6d)” value in the series on P4 CCR5-luc cells is greater than 100. Also, in the series on NL43 wild type virus, the EC50 (commonly the concentration at which the effect is half-maximal) is 450 nM.

As for `Cc1cn(C2COC(COP(=O)(NC(C)C(=O)OCc3ccccc3)Oc3ccccc3Cl)O2)c(=O)[nH]c1=O` (mixture of isomers) [Example 25], the “Toxicity (Luciferase, 6d)” value in the series with P4 CCR5-luc cells is greater than 100. Also, the EC50 with NL43 wild type virus amounted to 260 nM.

`Cc1cn(C2COC(COP(=O)(NC(CC(C)C)C(=O)OCC3CC3)Oc3ccccc3)O2)c(=O)[nH]c1=O` (mixture of isomers) [Example 116]: the “Toxicity (Luciferase, 6d)” value with P4 CCR5-luc cells is on record as greater than 100. Further, the EC50 with NL43 wild type virus was 570 nM.

Regarding `Cc1cn(C2COC(COP(=O)(NC(C)C(=O)OCc3ccccc3)Oc3ccccc3)O2)c(=O)[nH]c1=O` (mixture of isomers) [Example 119], the “Toxicity (Luciferase, 6d)” value in the series on P4 CCR5-luc cells is listed as greater than 100. Also, the 50% effective concentration (EC50) with NL43 wild type virus is 1700 nM.

As to `Cc1cn(C2COC(COP(=O)(NC(C)C(=O)OC3CCCC3)Oc3ccccc3)O2)c(=O)[nH]c1=O` (mixture of isomers) [Example 73], the “Toxicity (Luciferase, 6d)” value in the series on P4 CCR5-luc cells was greater than 100. The EC50 in the series with NL43 wild type virus came out at 1030 nM.

In the case of `Cc1cn(C2COC(COP(=O)(NC(C)C(=O)OCC3CC3)Oc3ccccc3)O2)c(=O)[nH]c1=O` (mixture of isomers) [Example 96], the “Toxicity (Luciferase, 6d)” value in the series with P4 CCR5-luc cells was greater than 100. In addition, the EC50 in the series on NL43 wild type virus came to 330 nM.

As to `Cc1cn(C2COC(COP(=O)(NC(C)C(=O)OCc3ccccc3)Oc3ccc(F)cc3)O2)c(=O)[nH]c1=O` (mixture of isomers) [Example 67], the “Toxicity (Luciferase, 6d)” value in the series on P4 CCR5-luc cells was greater than 100. Also, in the series with NL43 wild type virus, the EC50 came to 1110 nM.

In the case of `CCCCOC(=O)C(C)NP(=O)(OCC1OCC(n2cc(C)c(=O)[nH]c2=O)O1)Oc1ccc(Br)cc1` (mixture of isomers) [Example 28], the “Toxicity (Luciferase, 6d)” value in the series on P4 CCR5-luc cells was greater than 100. Moreover, the EC50 with NL43 wild type virus amounted to 1340 nM.

As for `CCCCCOC(=O)C(C)NP(=O)(OCC1OCC(n2cc(C)c(=O)[nH]c2=O)O1)Oc1ccccc1` (mixture of isomers) [Example 17], in the series on P4 CCR5-luc cells, the “Toxicity (Luciferase, 6d)” value was greater than 100. Further, the EC50 in the series on NL43 wild type virus stood at 360 nM.

On to `CCCCCCOC(=O)C(C)NP(=O)(OCC1OCC(n2cc(C)c(=O)[nH]c2=O)O1)Oc1ccccc1` (mixture of isomers) [Example 18], for which the EC50 in the series on NL43 wild type virus is 740 nM and 410 nM.

Consider `Cc1cn(C2COC(COP(=O)(NC(C)C(=O)OC3CCCCC3)Oc3ccccc3)O2)c(=O)[nH]c1=O` (mixture of isomers) [Example 72], for which the “Toxicity (Luciferase, 6d)” value in the series with P4 CCR5-luc cells is recorded as greater than 100. Also, the EC50 in the series with NL43 wild type virus is 2120 nM.

For the compound `CCOC(=O)C(C)NP(=O)(OCC1OCC(n2cc(C)c(=O)[nH]c2=O)O1)Oc1ccc(Cl)cc1` (mixture of isomers) [Example 20], the “Toxicity (Luciferase, 6d)” value in the series with P4 CCR5-luc cells was greater than 100. The EC50 in the series on NL43 wild type virus amounted to 270 nM.

In the case of `Cc1cn(C2COC(COP(=O)(NC(C)C(=O)OCc3ccc(F)cc3)Oc3ccccc3)O2)c(=O)[nH]c1=O` (mixture of isomers) [Example 19], the “Toxicity (Luciferase, 6d)” value with P4 CCR5-luc cells was greater than 100.

With `COC(=O)C(CC(C)C)NP(=O)(OCC1OCC(n2cc(C)c(=O)[nH]c2=O)O1)Oc1ccccc1` (mixture of isomers) [Example 52], the “Toxicity (Luciferase, 6d)” value in the series with P4 CCR5-luc cells is greater than 100. The EC50 in the series with NL43 wild type virus was determined as 960 nM.

Take `Cc1cn(C2COC(COP(=O)(NC(C)C(=O)OCC3CCC3)Oc3ccccc3)O2)c(=O)[nH]c1=O` (mixture of isomers) [Example 109]: the “Toxicity (Luciferase, 6d)” value in the series with P4 CCR5-luc cells is recorded as greater than 100. For the same compound, the EC50 in the series with NL43 wild type virus is 710 nM.

For `Cc1cn(C2COC(COP(=O)(NC(C)C(=O)OC3CCC3)Oc3ccc(F)cc3)O2)c(=O)[nH]c1=O` (mixture of isomers) [Example 86], the “Toxicity (Luciferase, 6d)” value in the series with P4 CCR5-luc cells is given as greater than 100. Also, the concentration giving a half-maximal response (EC50) in the series on NL43 wild type virus worked out at 500 nM.
